This is an account of results in US6248309A, “Gums containing antimicrobial agents” (priority 1999, dated 2001).

Where “and” joins values, the source holds several entries; their conditions need not be identical. Equal entries are not always repeated.

The subject of data set [1] is Streptococcus sanguis (SS). The data set can be described thus: MIC of agents alone, in pairs and in three-agent combination (Example 2). The data set is classed as cell-based, Streptococcus sanguis ATCC 49295. The conditions noted are these: agent used alone. The text has this:
(§1) In addition, the example describes how the MIC of antimicrobial agents in the combinations are reduced compared to the MIC of those antimicrobial agents alone and the MIC of those agents in various pairings. Numerous combinations of the antimicrobial agents described herein were combined to form combinations comprising three antimicrobial agents or triplets. Each of the formed triplets included either cedarwood oil or berberine hydrochloride.
(§2) The protocol used was a variation of the procedure described above in Example 1. The assay was carried out in the two-dimensional array of a 96-well plate. In order to evaluate three agents, two of the agents were paired against the third agent. For example, varying concentrations of antimicrobial agent A plus antimicrobial agent B versus varying concentrations of antimicrobial agent C were evaluated on one 96-well plate. The procedure was repeated with the other two possible pairings, i.e., A+C with B, and B+C with A. Accordingly, each triplet required three assays in order to assess each of the three possible pairings.
(§3) The bacterial innoculum was prepared as described in Example 1.
A sterile polystyrene 96-well plate was used to dilute the antimicrobial agents A, B and C. Using aseptic technique, 100 microliters of distilled water was placed in each test well. The dilution scheme was separated into two parts. First, the dilution of the combined agents A and B and then second, the dilution of agent C. A dilution of agents A and B was accomplished by placing 50 microliters of stock solution for agent A in the first well of each column. Next, 50 microliters of stock solution for agent B was added to each of the first wells of each column. […]
(§4) The 96-well plate was then incubated under conditions that varied by microorganism. […] The plate was then read for microbial growth with a spectrophotometer by optical density. […]

The test system of data set [2] is Campylobacter rectus (CR). The description is as above. The data set is classed as cell-based. The note with it: read-out: MIC, individual agent alone.
Source text: as §1, §2, §3
A sterile polystyrene 96-well plate was used to dilute the antimicrobial agents A, B and C. […]
as §4

For data set [3], the system named is Porphyromonas gingivalis (PG). The data set is described as above. Format: cell-based, Porphyromonas gingivalis ATCC 33277.
Source text: as §1, §2, §3
(§5) A sterile polystyrene 96-well plate was used to dilute the antimicrobial agents A, B and C. Using aseptic technique, 100 microliters of distilled water was placed in each test well. The dilution scheme was separated into two parts. First, the dilution of the combined agents A and B and then second, the dilution of agent C. A dilution of agents A and B was accomplished by placing 50 microliters of stock solution for agent A in the first well of each column. Next, 50 microliters of stock solution for agent B was added to each of the first wells of each column. Accordingly, the first well of each column included 50 microliters of stock solution for agent A and 50 microliters of stock solution for agent B. 100 microliters from the first row in each column was then transferred to the next well in the column and so on down the column. Each transfer was a one-half dilution of the preceding concentration.
(§6) The dilution of antimicrobial agent C was accomplished by adding 100 microliters of agent C stock solution to the first well of each row. 100 microliters from the first well in each row was then transferred to the next well and so on across the row of test wells. Each transfer was a one-half dilution of the preceding concentration. FIG. 1 is a schematic illustration of the concentrations of antimicrobial agents A, B and C derived from the dilution scheme described above. […] The concentration of agent C decreases across a row from left to right. […]
as §4

The subject of data set [4] is Fusobacterium nucleatum (FN). The description is as above. The data set is classed as cell-based, Fusobacterium nucleatum ATCC 10933.
Source text: as §1, §2, §3, §5, §6, §4

Data set [5] concerns Streptococcus mutans (SM). The data set is described as above. Format: cell-based, Streptococcus mutans ATCC 25175. The conditions noted are these: agent used alone.
Source text: as §1, §2, §3, §5, §6, §4

The subject of data set [6] is Actinomyces viscosus (AV). Described as above. Format: cell-based, Actinomyces viscosus ATCC 19246. The note with it: agent used alone.
Source text: as §1, §2, §3, §5, §6, §4

The subject of data set [7] is Porphyromonas gingivalis (PG). The data set can be described thus: MIC of agents alone and in two-agent combination (Example 1). The data set is classed as cell-based, Porphyromonas gingivalis ATCC 33277. The note with it: concentration of TB1 (agent A). The protocol:
(§7) The following example illustrates how the MIC of individual antimicrobial agents that are combined were determined and also illustrates how the MIC of the antimicrobial agents in combination were determined.
(§8) A microtiter plate was used to dilute the antimicrobial agents to varying concentrations in order to determine the MIC of those antimicrobial agents alone and the MIC of the agents when combined.
(§9) A bacterial culture was incubated at 37° C. Prior to the dilution of the antimicrobial agents as described below, the bacterial culture was spun down at 2,000 rpm into a pellet and resuspended in a solution of buffered phosphate. The innoculum was normalized with a spectrophotometer to an optical density at 550 nanometers of between 0.180-0.220 (equivalent to 5.0×10^7 colony forming units, CFU per milliliter). The innoculum was set aside until the completion of the antimicrobial agent dilution. […]
(§10) Following 48 hours of incubation, the incubated plate was read for microbial growth with a spectrophotometer by optical density (OD). The well containing the lowest dilution achievable for each agent with a spectrophotometer reading below 0.05 OD (i.e., no detectable microbial growth) was considered representative for the combination. The MIC for each agent in the combination was determined by accounting for the starting stock solution concentration and the resulting dilutions in the 96-well plate. […]

In data set [8] the test system is Actinomyces viscosus (AV). Described as above. Format: cell-based, Actinomyces viscosus ATCC 19246. The note with it: concentration of TB1 (agent A). The protocol:
as §7, §8, §9, §10

For data set [9], the system named is Streptococcus mutans (SM). The description is as above. The data set is classed as cell-based, Streptococcus mutans ATCC 25175. The note with it: concentration of TB1 (agent A). Here is the method:
as §7, §8, §9, §10

Data set [10] deals with Fusobacterium nucleatum (FN). The description is as above. The data set is classed as cell-based, Fusobacterium nucleatum ATCC 10933. The note with it: concentration of TB1 (agent A). Here is the method:
as §7, §8, §9, §10

Data set [11] relates to Streptococcus sanguis (SS). Described as above. Format: cell-based, Streptococcus sanguis ATCC 49295. The conditions noted are these: concentration of TB1 (agent A). The protocol: as §7, §8, §9, §10
The format of data set [12] is in vivo, human volunteers. The note with it: 2.7 g peppermint gum chewed 25 min, ten volunteers. Here is the method:
The saliva samples were refrigerated until analysis.
To either 2.7 grams unchewed gum sample or the remaining bolus of chewed gum, was added 3.0 millileters of internal standard (Hesperetin) in methanol, 6.0 milliliters hexane and 3.0 milliliters distilled water. Samples were homogenized using a Polytron Homogenizer model PT10/35 from Brinkmann Instruments, fitted with a PTA10TS generator for at least 30 seconds on ice, or until no lumps of non-dispersed gum were visible in the sample. Samples were then centrifuged in a Dynac Tabletop Centrifuge at top speed for ten minutes. The lower, amber, aqueous/methanol layer were then filtered through 25 millimeter, 0.45 micrometer nylon Acrodisc syringe filters from Gelman into 4 milliliter autosampler vials and tightly capped with polytetrafluorothylene lined septum in open-top screw caps. These samples were then analyzed using high pressure liquid chromatography for glabridin and/or glycyrrhizic and 18β-glycyrrhetinic acid, and were quantitated against a 4-point linear curve prepared by spiking approximately 2.7 grams unchewed samples of Wrigley Extra Sugarfree Peppermint gum with known levels of purified glabridin, glycyrrhizic acid monoammonium salt and 18β-glycyrrhetinicacid.
For the analysis of the gum bolus, both chewed and unchewed, a Polytron Homogenizer, described above was used. The gum sample was placed in a heavy wall glass tube. Internal standard ([…]) ethyl acetate ([…]) and water ([…]) were added. The sample was homogenized for approximately 30 seconds, or until no particles could be seen. The tubes were then centrifuged for 10 minutes on a clinical centrifuge at maximum speed. The supernatant was injected directly onto the gas chromatograph. The oven program was modified to allow resolution of ROF1 components from those of the peppermint flavoring. The gas chromatograph was calibrated using a three point standard curve to quantify the following components: menthol (flavor); geraniol (oil geraniol); cedrene, thujopsene (RC1); pinene, cineol, camphor, bornyl acetate (ROF1). The initial temperature was decreased from 140° C. to 100° C. The temperature gradient was changed from 10° C./minute to 4° C./minute. The split ratio was 50:1, and injection volume was 1 μL as per the method. A cleanup gradient was run every fifth sample as described previously.
A recovery study was performed in triplicate using blank Wrigley's Peppermint Gum (chewed and unchewed) spiked with stand and solution. Recovery was calculated relative to a direct standard consisting of spike solution without sample matrix.

Another data set relates to Porphyromonas gingivalis. Description: MIC of each agent used in Example 5. Format: cell-based. The conditions noted are these: read-out: MIC relative to Porphyromonas gingivalis used in Example 5. Here is the method:
The MIC Range was determined against a standard panel of five organisms that included Actinomyces viscosus, Fusobacterium nucleatum, Porphyromonas gingivalis, Streptococcus mutans, and Stretococcus sanguis. The starting dilution was 0.1 percent in methanol. The MIC used in this Example 5 was the MIC for each agent relative to Porphyromonas gingivalis.

The next data set is described as follows: clinical. The note with it: human, in vivo.

Procedure for clinical: Ten volunteers chewed 2.7 grams samples of each gum formulation and provided saliva samples at intervals and the gum bolus at the end of the 25 minute chewing period. High pressure liquid chromatography and gas chromatography were used to analyze the gum bolus and saliva non-volatile and volatile components, respectively.
Saliva samples were collected from each of the individuals prior to chewing 2.7 grams of gum, and at 1.0, 2.5, 5.0, 10.0, and 25.0 minutes while chewing the gum. The saliva samples were refrigerated until analysis. The gum bolus that remained after 25 minutes was saved and extracted immediately or stored refrigerated until extraction for analysis.
Samples were Vortex-mixed in Multi-tube vortex mixer for one minute and then centrifuged at top speed in clinical centrifuge for two minutes. Supernatants were carefully transferred to 1 milliliter glass shell vials and capped. Analysis was carried out either by isocratic elution for glabridin-only samples, or gradient elution for the samples containing the glycyrrhizic and 18β-glycyrrhetinic acids using high pressure liquid chromatography. Glabridin concentrations were converted to GLY concentrations by taking the weight percent glabridin in GLY to be 2.74 percent.
The calibration curve was prepared using spiked blank saliva.
For saliva, the essential oils of menthol, cedarwood oil, geraniol and Rosmarinus officianalis were determined by capillary gas chromatography. The split ratio was 25:1. The injection volume was 2 μL. Four hundred μL of saliva was extracted from the 1 milliliter of ethyl acetate containing an internal standard (hexadecane) in 1.5 milliliter Eppendorf tubes. After centrifugation, the organic layer was injected directly into the Hewlett-Packard 6890 gas chromatograph. […] For this reason, only the samples from 0 to 10 minutes were analyzed. A cleanup gradient was run from 190 to 300° C. every fifth sample to remove less volatile interferences from the column.

Take `COc1ccc2cc3[n+](cc2c1OC)CCc1cc2c(cc1-3)OCO2` [BX1, 5,6-dihydro-9,10-dimethoxybenzo[g]-1,3-benzodioxolo [5,6-a] quinolizinium]: the “MIC, individual agent alone” value in data set [1] (SS) was 62.5 µg/mL; in [3] (PG, agent used alone), 15.6 µg/mL; in data set [4] (FN, agent used alone), 62.5 µg/mL; in data set [5] (SM) it was 31.3 µg/mL and 62.5 µg/mL; in data set [6] (AV), 62.5 µg/mL. For the same compound, the MIC amounted to 31.3 µg/mL in data set [1] (Streptococcus, read-out: MIC, individual agent alone, SS); 125 µg/mL in [2]; 15.6 µg/mL in [3] (Porphyromonas gingivalis, read-out: MIC, individual agent alone); 62.5 µg/mL in [4] (Fusobacterium nucleatum, read-out: MIC, individual agent alone); 31.3 µg/mL in data set [5] (Streptococcus mutans, read-out: MIC, individual agent alone, SM); 31.3 µg/mL in [6] (Actinomyces viscosus, read-out: MIC, individual agent alone, AV).

Take N-cocamidopropyl-dimethylglycine [TB1]: the “MIC of Cocamidopropyl Dimethylglycine alone and when combined with Agent B” value in data set [7] is 16.8 µg/mL; in data set [8], 28.9 µg/mL; in data set [9], 22.8 µg/mL; in data set [10], 45.4 µg/mL; in [11], 30.2 µg/mL.

As for `CC1CCC(C(C)C)C(O)C1` (stereo not drawn) [Menthol], the “Concentration of Antimicrobial Agent in Saliva” value (25 minutes, GLY formulations 1,3-6, RC1 5,6, GRA 4-6, GA, GR #6, menthol 1-6) was “below detection limits”. Under “concentration in saliva at any time above MIC relative to Porphyromonas gingivalis”, the “Above MIC in Saliva (Y/N)” value is “No”. In addition, the “Release from Chewed Gum Bolus after 25 min” value in data set [12] is 50%. Also, the MIC in the data set on Porphyromonas gingivalis was 125 µg/mL. For the same compound, in “clinical”, the concentration at 1 min was found to be 25000 ng/mL, the concentration at 2.5 min was found to be 22000 ng/mL, the concentration at 5 min worked out at 24000 ng/mL and the concentration at 10 min was determined as 24000 ng/mL.
